In patent publication US8455520B2, “Soluble epoxide hydrolase inhibitors, compositions containing such compounds and methods of treatment” (Merck Sharp & Dohme Corp., priority 2007, dated 2013):

Target: T1, human sEH enzyme (Homo sapiens, UniProt P34913)
T1 construct: His-tag (N, cleaved yes); made in house; host or cells: E. coli
T1 sequence (P34913 1-555): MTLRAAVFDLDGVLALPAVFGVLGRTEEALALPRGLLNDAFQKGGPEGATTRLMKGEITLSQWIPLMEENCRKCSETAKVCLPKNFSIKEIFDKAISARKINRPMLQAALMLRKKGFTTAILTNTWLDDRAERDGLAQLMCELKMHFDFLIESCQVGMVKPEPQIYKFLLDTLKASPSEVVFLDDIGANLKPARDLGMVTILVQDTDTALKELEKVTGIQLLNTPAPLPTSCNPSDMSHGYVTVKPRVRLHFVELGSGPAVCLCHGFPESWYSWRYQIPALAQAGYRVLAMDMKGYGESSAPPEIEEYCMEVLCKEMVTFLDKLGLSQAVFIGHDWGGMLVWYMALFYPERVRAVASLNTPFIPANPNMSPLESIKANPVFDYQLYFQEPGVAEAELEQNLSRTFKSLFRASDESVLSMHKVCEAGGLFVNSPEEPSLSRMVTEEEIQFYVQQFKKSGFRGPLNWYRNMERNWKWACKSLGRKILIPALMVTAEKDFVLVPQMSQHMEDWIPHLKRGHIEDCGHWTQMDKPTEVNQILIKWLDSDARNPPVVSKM
Experiment: sEH human enzyme assay (fluorescence based enzyme in vitro assay)
Format: biochemical
Conditions: recombinant human sEH about 1 nM, fluorescence substrate S7 10 uM, pH7.0, 25° C.; read-out: IC50 [nM] for human sEH enzyme inhibition
Source text: Preparation of Recombinant sEH Human Enzyme
The DNA for expressing sEH was designed based on a […] sEH cDNA. Necessary Modifications were introduced to optimize for its expression both in E. coli and insect cells. The designed DNA fragment encodes a protein sequence that is identical to full length human sEH, and the DNA was synthesized in vitro. The DNA was then subcloned into the pET100 vector that will generate a fusion protein with an N-terminal His-tag. The recombinant protein was expressed in E. coli. The sEH enzyme was affinity purified by a Ni^++ column. His-tag was removed by Enter Kinase (EK) digestion. The purified enzyme aliquots were frozen and held at −80° C. for later use.
Fluorescence Based Enzyme In Vitro Assay
For each assay (100 ul), an aliquot of enzymes (about 1 nM final concentration) was incubated with a fluorescence substrate, S7 (10 uM final concentration), in sEH assay buffer (25 mM HEPES, pH7.0, 0.1 mg/ml BSA) in a 96-well plate. The kinetic reaction reading (Ex330/Em465) was conducted using a plate reader, Spectra max (Molecular Devices) at 25° C.

SMILES	IC50 [nM]
CCOC(=O)C1(Cc2nc3ccccc3[nH]2)CCCN(C(=O)Nc2ccc(C(F)(F)F)cc2)C1 (stereo not drawn) [Example 22]	3
CC1(c2ccccc2)CCCN(C(=O)NC2CCc3ccccc3C2)C1 (stereo not drawn) [Example 36]	1
CC1(c2ccccc2)CCCN(C(=O)NCc2ccc(-c3ccc4[nH]ccc4c3)cc2)C1 (stereo not drawn) [Example 42]	7
CC1(c2ccccc2)CCCN(C(=O)NCc2ccc(-c3ccccc3Cl)cc2)C1 (stereo not drawn) [Example 40]	6
CC1(c2ccccc2)CCCN(C(=O)NC2CCc3ccccc3CC2)C1 (stereo not drawn) [Example 37]	2
COC(=O)CCC1(c2ccccc2)CCCN(C(=O)Nc2ccc(-n3nc(C(F)(F)F)cc3C(F)(F)F)cc2)C1 (stereo not drawn) [Example 10]	3
O=C(O)CCC1(c2ccc(-c3ccccc3)cc2)CCCN(C(=O)Nc2ccc(OC(F)(F)F)cc2)C1 (stereo not drawn) [Example 6]	8
O=C(CCC1(c2ccccc2)CCCN(C(=O)Nc2ccc(Cl)cc2)C1)Nc1nnn[nH]1 (stereo not drawn) [Example 48]	1
O=C(Nc1ccc(C(F)(F)F)cc1)N1CCCC(Cc2ccccc2)(C(=O)NCCc2c[nH]c3ccccc23)C1 (stereo not drawn) [Example 20]	< 1
O=C(O)CCC1(c2ccccc2)CCCN(C(=O)Nc2ccc(-n3nc(C(F)(F)F)cc3C(F)(F)F)cc2)C1 (stereo not drawn) [Example 11]	3
NC(=O)CCC1(c2ccccc2)CCCN(C(=O)Nc2ccc(Cl)cc2)C1 (stereo not drawn) [Example 45]	5
CN(C)C(=O)C1(Cc2ccccc2)CCCN(C(=O)Nc2ccc(C(F)(F)F)cc2)C1 (stereo not drawn) [Example 25]	3
CCOC(=O)C1(Cc2c(Cl)cccc2Cl)CCCN(C(=O)Nc2ccc(C(F)(F)F)cc2)C1 (stereo not drawn) [Example 9]	< 1
N#CCCC1(c2ccccc2)CCCN(C(=O)Nc2ccc(Cl)cc2)C1 (stereo not drawn) [Example 46]	3
O=C(O)CCC1(c2ccccc2)CCCN(C(=O)Nc2ccc(Cl)cc2)C1 (stereo not drawn) [Example 3]	5
CC1(c2ccccc2)CCCN(C(=O)NC2C3CC4CC(C3)CC2C4)C1 (stereo not drawn) [Example 29]	10
CC1(c2ccccc2)CCCN(C(=O)NCCCCc2ccccc2)C1 (stereo not drawn) [Example 31]	1
CCOC(=O)C1(Cc2nccn2Cc2ccccc2)CCCN(C(=O)Nc2ccc(C(F)(F)F)cc2)C1 (stereo not drawn) [Example 24]	7
CC1(c2ccccc2)CCCN(C(=O)NCC2CCc3ccccc3C2)C1 (stereo not drawn) [Example 35]	2
O=C(O)CCCC1(c2ccccc2)CCCN(C(=O)Nc2ccc(Cl)cc2)C1 (stereo not drawn) [Example 52]	12
CCOC(=O)C1(Cc2cccc3ccccc23)CCCN(C(=O)Nc2ccc(C(F)(F)F)cc2)C1 (stereo not drawn) [Example 21]	3
CC1(c2ccccc2)CCCN(C(=O)NCc2ccc(-c3ccc4cn[nH]c4c3)cc2)C1 (stereo not drawn) [Example 43]	6
N#CC1(Cc2ccccc2)CCCN(C(=O)Nc2ccc(C(F)(F)F)cc2)C1 (stereo not drawn) [Example 17]	2
O=C(Nc1ccc(Cl)cc1)N1CCCC(CCc2nnn[nH]2)(c2ccccc2)C1 (stereo not drawn) [Example 47]	5

Second part, the compound after the results:

IC50 [nM]	SMILES
1.5	CC1(c2ccccc2)CCCN(C(=O)NCc2ccc(-c3cccnc3)cc2)C1 (stereo not drawn) [Example 41]
7	CC1(c2ccccc2)CCCN(C(=O)NC[C@H]2C[C@@H]2c2ccccc2)C1 (stereo in doubt) [Example 28]
1	CC1(c2ccccc2)CCCN(C(=O)NC2CC2c2ccccc2)C1 (stereo not drawn) [Example 27]
< 1	CC1(c2ccccc2)CCCN(C(=O)NCCc2ccc(Cl)cc2)C1 (stereo not drawn) [Example 30]
< 1	O=C(Nc1ccc(Cl)cc1)N1CCCC(Cc2ccc(Cl)cc2)(c2ccccc2)C1 (stereo not drawn) [Example 5]
306	CC1(c2ccccc2)CCCN(C(=O)Nc2cccnc2)C1 (stereo not drawn) [Example 32]
5	CNC(=O)CCC1(c2ccccc2)CCCN(C(=O)Nc2ccc(Cl)cc2)C1 (stereo not drawn) [Example 50]
3	CC1(c2ccccc2)CCCN(C(=O)NCc2ccc(-c3cccc4cnccc34)cc2)C1 (stereo not drawn) [Example 44]
6	CC1(c2ccccc2)CCCN(C(=O)NCCCc2cccnc2)C1 (stereo not drawn) [Example 33]
6	O=C(O)CCC1(c2ccc(F)cc2)CCCN(C(=O)NCCCc2ccccc2)C1 (stereo not drawn) [Example 8]
2	O=C(Nc1ccc(Cl)cc1)N1CCCC(COCc2cc(C(F)(F)F)cc(C(F)(F)F)c2)(c2ccccc2)C1 (stereo not drawn) [Example 1]
2	O=C(Nc1ccc(C(F)(F)F)cc1)N1CCCC(CO)(Cc2ccccc2)C1 (stereo not drawn) [Example 14]
5	O=C(NC1(Cc2ccccc2)CCCN(C(=O)Nc2ccc(C(F)(F)F)cc2)C1)OCc1ccccc1 (stereo not drawn) [Example 15]
5	CC1(c2ccccc2)CCCN(C(=O)NCCc2ccc3nccnc3c2)C1 (stereo not drawn) [Example 34]
341	CC1(c2ccccc2)CCCN(C(=O)Nc2nnc(-c3ccccc3)s2)C1 (stereo not drawn) [Example 12]
30	CC1(c2ccccc2)CCCN(C(=O)NCc2nc3ccccc3s2)C1 (stereo not drawn) [Example 38]
6	CNC(=O)C1(Cc2ccccc2)CCCN(C(=O)Nc2ccc(C(F)(F)F)cc2)C1 (stereo not drawn) [Example 16]
59	CC1(c2ccccc2)CCCN(C(=O)Nc2noc3ccccc23)C1 (stereo not drawn) [Example 13]
5	O=C(NCc1ccc(Cl)c(Cl)c1)N1CCCC(CCc2noc(C(F)(F)F)n2)(c2ccccc2)C1 (stereo not drawn) [Example 18]
< 1	COC(=O)CCC1(c2ccc(F)cc2)CCCN(C(=O)NCCCc2ccccc2)C1 (stereo not drawn) [Example 7]
5	Cc1nc(C2(C)CCCN(C(=O)Nc3ccc(C(F)(F)F)cc3)C2)no1 (stereo not drawn) [Example 49]
5	CC1N(C(=O)Nc2ccc(Cl)cc2)CCCC1(C)c1ccccc1 (stereo not drawn) [Example 4]
< 1	COC(=O)CCCC1(c2ccccc2)CCCN(C(=O)Nc2ccc(Cl)cc2)C1 (stereo not drawn) [Example 51]
2	O=C(Nc1ccc(C(F)(F)F)cc1)N1CCCC(Cc2ccccn2)(C(=O)OCc2ccccc2)C1 (stereo not drawn) [Example 23]
